Laboratory results published in patent US20090029406A1, “Npy Y4 Agonist as Therapeutic Agent for Disease Accompanied by Intestinal Tract Dysfunction” (Banyu Pharmaceutical Co., Ltd., priority 2006, published 2009).

Columns and labels:
[1] = tested on: distal colon isolated from a wild-type mouse; assay: Tension of distal colon isolated from wild-type mouse (Example 5); conditions: 1 μM
Method: (§1) The ileum, proximal colon and distal colon were isolated from an NPY Y4 receptor knockout mouse and a wild-type mouse (32 to 37 weeks of age). The specimens were cut into a length of 1 cm, respectively, and were suspended in the longitudinal muscle direction under a resting tension of 0.3 g in 5 mL of Krebs-Henseleit solution oxygenated with 95% O2 and 5% CO2, while setting the temperature of a bath to 37° C. The tension was measured using an isometric transducer (TB-65 1, manufactured by Nihon Kohden), and outputs were recorded at 20 points per second using Power Lab (ADInstrument).
(§2) After equilibration for 1 hour, 1 μM mPP was applied and measurement was carried out for 20 minutes. The above-mentioned mPP was prepared such that it became a 1 mM solution in DMSO, and 5 μL of the resulting solution was applied to 5 mL of an organ bath. The action of mPP was represented by a ratio of an average tension for 20 minutes after the application to an average tension for 20 minutes before the application. The statistical calculation was performed using the Student's t-test or paired t-test.

[2] = tested on: ileum isolated from a C57BL/6 mouse; assay: Tension of isolated ileum, organ bath (Example 2); conditions: 0.01, 0.1 and 1 μM
Method: (§3) The ileum, proximal colon and distal colon were isolated from a C57BL/6 mouse (8 to 20 weeks of age). The specimens were cut into a length of 1 cm, respectively, and were suspended in the longitudinal muscle direction under a resting tension of 0.3 g in 5 mL of Krebs-Henseleit solution (the composition is shown in Table 1) oxygenated with 95% O2 and 5% CO2, while setting the temperature of a bath to 37° C. The tension was measured using an isometric transducer (TB-651, manufactured by Nihon Kohden), and outputs were recorded at 20 points per second using Power Lab (manufactured by ADInstrument).
(§4) After equilibration for 1 hour, mPP at 0.01 μM, 0.1 μM and 1 μM was applied and measurement was carried out for 20 minutes. The above-mentioned mPP was prepared such that it became 0.01 mM, 0.1 mM and 1 mM solutions in DMSO, and 5 μL of each of the resulting solutions was applied to 5 mL of an organ bath. The action of mPP was represented by a ratio of an average tension for 20 minutes after the application to an average tension for 20 minutes before the application. The statistical calculation was performed using the paired t-test.

male mice (C57BL/6J) = assay: Amount of excreted feces after subcutaneous administration to mice (Example 1); assay type: in vivo, mouse
Excerpt: Also, it is known that the Y4 receptor is present in the lower gastrointestinal tract. Accordingly, by administering mouse PP (mPP) to a mouse, an effect on the movement of the lower gastrointestinal tract of the mouse was studied. That is, how the amount of excreted feces was changed by the administration of mPP was observed, and a change in the gastrointestinal movement was discussed by assuming that an increase in the amount of excreted feces reflects an increase in the lower gastrointestinal tract movement.
To male mice (C57BL/6J, 15 weeks of age), mPP (0.001, 0.01, 0.1 or 1 mg/kg) was subcutaneously administered, and to a vehicle group, only saline (5 mL/kg) was subcutaneously administered. The mice were subjected to fasting at the same time of the subcutaneous administration of saline or mPP. Feces were collected at 1, 2 and 4 hours after the administration, and the weight of the feces was measured. A significant difference between groups was analyzed using an analysis of variance and the Dunnett's test.

[3] = tested on: proximal colon isolated from a C57BL/6 mouse; assay: Tension of isolated proximal colon, organ bath (Example 2)
Method: as §3, §4

[4] = tested on: distal colon isolated from a C57BL/6 mouse; assay: Tension of isolated distal colon, organ bath (Example 2)
Method: as §3, §4

[5] = tested on: NPY Y4 receptor knockout mice; assay: Amount of excreted feces in NPY Y4 receptor knockout mice (Example 4); assay type: in vivo, mouse; conditions: 1 mg/kg subcutaneous, vehicle group 358±31 mg/2 h
Method: (§5) The following test was carried out using wild-type mice and NPY Y4 receptor knockout mice (male, 23 to 39 weeks of age, n=10 to 16). mPP (1 mg/kg) or saline (5 mL/kg) was subcutaneously administered to the mice. The mice were subjected to fasting at the same time of the subcutaneous administration. Feces were collected at 1 and 2 hours after the administration, and the weight of the feces was measured. The cumulative amount of feces for 2 hours was used for an analysis, and a significant difference between groups was analyzed using the Student's t-test.

[6] = tested on: ileum isolated from an NPY Y4 receptor knockout mouse and a wild-type mouse; assay: Tension of ileum isolated from NPY Y4 receptor knockout and wild-type mouse (Example 5); conditions: 1 μM
Method: as §1, §2

wild-type mice = assay: Amount of excreted feces in wild-type mice (Example 4); assay type: in vivo, mouse; conditions: 1 mg/kg subcutaneous
Method: as §5

[7] = tested on: mouse models of constipation induced by clonidine; assay: Mouse models of constipation induced by clonidine, amount of excreted feces (Example 3); assay type: in vivo; conditions: clonidine 0.1 mg/kg i.p., mPP 1 mg/kg s.c. one hour later; 4 hours after clonidine (3 hours after mPP)
Method: To male mice (C57BL/6J, 18 weeks of age), clonidine (0.1 mg/kg) was intraperitoneally administered, and to a vehicle group, only saline was intraperitoneally administered. One hour after the administration of clonidine, saline (a control group) or mPP (1 mg/kg) was subcutaneously administered, and also to a vehicle group, only saline was subcutaneously administered. The mice were subjected to fasting at the same time of the intraperitoneal administration of saline or clonidine. Feces were collected at 1, 2, 3 and 4 hours after the administration, and the weight of the feces was measured. A significant difference between groups was analyzed using an analysis of variance and the Tukey's test.

[8] = tested on: proximal colon isolated from a wild-type mouse; assay: Tension of proximal colon isolated from wild-type mouse (Example 5); conditions: 1 μM
Method: as §1, §2

[9] = 0.01, 0.1 and 1 μM, ratio of average tension 20 min after to 20 min before application

mouse PP (APLEPMYPGDYATPEQMAQYETQLRRYINTLTRPRY; mouse) [mPP]
increase in the tension [1]: an increase in the tension observed in the wild-type mouse | increase in the tension [2]: a significant increase in the tension was not observed | cumulative amount of excreted feces for 4 hours after administration (male mice (C57BL/6J); 0.1 mg/kg subcutaneous, P<0.05 vs vehicle group (211±18 mg/4 h)): 325±22 mg/4 h | action of increasing defecation (amount of excreted feces) (male mice (C57BL/6J); 0.001, 0.01, 0.1 or 1 mg/kg subcutaneous, feces collected at 1, 2 and 4 hours): exhibited an action of increasing defecation in a dose dependent manner | cumulative amount of excreted feces for 4 hours after administration (male mice (C57BL/6J); 1 mg/kg subcutaneous, P<0.01 vs vehicle group (211±18 mg/4 h)): 408±36 mg/4 h | dose at which cumulative amount of excreted feces for 4 hours was significant compared with the vehicle group (male mice (C57BL/6J); subcutaneous): ≥ 0.1 mg/kg | amplitude of automatism [3]: an increase in the amplitude of automatism was observed | increase in the tension, dose dependence ([3]; 0.01, 0.1 and 1 μM): increased the tension in a dose dependent manner | maximum action on tension, of that before the application [3, 9]: 131% | amplitude of automatism [4]: an increase in the amplitude of automatism was observed | increase in the tension, dose dependence ([4]; 0.01, 0.1 and 1 μM): increased the tension in a dose dependent manner | maximum action on tension, of that before the application [4, 9]: 152% | cumulative amount of feces for 2 hours [5]: 403±43 mg/2 h | difference in the change in the tension between wild-type and NPY Y4 receptor knockout mouse [6]: a difference was not observed between them | action of increasing defecation (wild-type mice): exhibited an action of increasing defecation | cumulative amount of feces for 2 hours (wild-type mice; P<0.01 vs vehicle group (322±41 mg/2 h)): 668±64 mg/2 h | decrease in the amount of excreted feces compared with the vehicle group [7]: a significant decrease in the amount of excreted feces was not observed | increase in the tension [8]: an increase in the tension observed in the wild-type mouse
